Laboratory results reported in patent US20240252508A1, “Novel glucose uptake inhibitors for use in the treatment of cancer” (NOVELYEAST BV, priority 2021, published 2024).
“Also recorded” adds a separate entry of the source. Read-outs that look alike come from different tables or passages of the source.

Key:
wild type cells = test: Zero-trans glucose uptake in wild type yeast cells; assay type: cell-based, S. cerevisiae; settings: for Ki: Dixon plot analysis
Method: Zero-trans uptake of radioactively labeled [U-^14C]glucose, [U-^14C]fructose or [U-^14C]galactose by S. cerevisiae cells was determined in accordance with previous studies^44,66. Cells were grown on different carbon sources depending on the experiment. For measuring glucose uptake activity in the tps1Δ and tps1Δ hxtA strains (FIG. 1b,c), cells were grown on YP medium containing 3% glycerol (measurement of 10s). Typically, for compound characterization and kinetic studies in wild type and tps1Δ strains, cells were (pre)grown on Complete Synthetic medium supplemented with 2% galactose (measurement of 10s). In the experiments on the influence of hexokinase activity on the sugar uptake rate, the measurement duration was shortened to 5s and cells were always grown on YP medium containing 3% glycerol and 2% ethanol. After harvesting, cells were washed twice with ice-cold 25 mM MES-buffer pH 6, and resuspended in their respective medium without sugar to a final concentration of 45 mg (wet weight)/mL. The amount of added tracer was estimated to give a response close to at least 1000 counts per min in order to adequately counter background noise. Cells were first preincubated for 10 min at 30° C. with the compound to acclimate the cells to the temperature and to allow adequate interaction with the compound prior to uptake. Next, hexose sugar was mixed with the cell suspension, which was then incubated for 5 or 10 s, depending on the experiment, after which the cells were rapidly filtered over a glass microfiber filter (Whatman GF/C) and washed three times with ice-cold dH2O. The loaded filter was transferred to a scintillation vial containing 3 mL liquid scintillation cocktail (Ultima-Flo M, Perkin Elmer) and counted using the Hidex 300 SL. Three blank measurements per strain were typically included to account for background signal, for which the cells were first quenched before adding the radioactive label.

[1] = test system: A549 lung adenocarcinoma cells; test: 2-deoxyglucose uptake in A549 cells; assay type: cell-based, human
Method: Zero-trans glucose uptake in A549 cells was approximated by measuring the uptake of [1,2-^3H]2-deoxyglucose. For this purpose, A549 cells were pregrown in RPMI medium containing 10 mM glucose in a 24-well plate to a cell density of around 100,000 cells/well. Prior to adding radioactive label, cells were gently washed twice in Krebs-Ringer-HEPES buffer (50 mM HEPES pH 7.4, 137 mM NaCl, 4.7 mM KCl, […], 1.3 mM MgSO4 and 0.1% w/v BSA) at 30° C. to remove any residual sugar. RPMI medium without sugar containing the compound intended for treatment, was added to the cells for 15 min at 37° C. to allow adequate interaction of the cells with the compound.
The uptake measurement was initiated by adding an equal volume of medium containing radiolabeled 2DG. After 3-4 min, medium was aspirated and cells were gently washed three times with ice-cold Krebs-Ringer-HEPES buffer. Cells were lysed by adding 200 μL of ice-cold 0.1 M NaOH solution and incubating the plate for 10 min at 37° C. Cell lysates were transferred to scintillation vials for subsequent scintillation counting. For blank measurements, cells were incubated with 50 μM Cytochalasin B prior to the uptake measurement.

[2] = test system: U266 multiple myeloma cell line; test: U266 proliferation (cell count); assay type: cell-based, human; settings: 25 μM, 4 days, RPMI with 1 mM glucose
Method: a. Cell count of the U266 multiple myeloma cell line after 4 days of growth on RPMI medium with 1 mM glucose. Cells were treated with either DMSO or 25 μM of WBC-A, -15C, -4C or -11C. Glucose consumption (b.) or lactate secretion (c.) rates are shown for U266 cells incubated in RPMI medium supplemented with 1 mM glucose for 8 h.

[3] = test system: KMS-12-PE multiple myeloma cells; test: Steady-state glucose consumption and lactate production in KMS-12-PE cells; assay type: cell-based, human; settings: 25 μM, 1 mM glucose, 8 h
Method: The influence of WBC compounds on the steady-state glucose consumption rate was studied in the A549 adenocarcinoma and KMS-12-PE multiple myeloma cell lines. As such, different parameters needed to be optimized depending on whether cells were adherent or in suspension. As such, A549 cells were incubated at 125,000 cells/well in a 24-well plate in 300 μL RPMI medium for 8 h. For the KMS-12-PE cell line, 100,000 cells/well were incubated in 100 μL RPMI medium in a 96-well plate for 8 h. Medium was collected, spun down and HPLC-analyzed for measuring glucose and lactate levels. Metabolite levels were corrected for cell number, which always varied little over the span of 8 h. For every condition, at least 4 technical repeats were included.

[4] = Warbicin toxicity and tolerability in mice; assay type: in vivo, NMRI-nu mice
Method: Warbicin in vivo toxicity and tolerability was examined by subjecting NMRI-nu mice to daily intraperitoneal injection of either WBC-A, WBC-15C, WBC-4C or WBC-11C. Compounds were dosed at either 5 mg/kg, 10 mg/kg or 20 mg/kg over a period of 20 days. Three mice were used per condition. To evaluate toxicity, change in body weight was registered daily. As a humane endpoint, mice that lost more than 20% of their original body weight were prematurely sacrificed. An optimal dissolve strategy was developed to administer WBC compounds by intraperitoneal injection. Due to their considerable hydrophobicity, compounds were dissolved in a sterilized 1×PBS, 5% DMSO and 5% Tween-80 solution. For WBC-A, -15C and -4C, this gives an initial clear solution that gradually changes over time into a homogenous suspension which can still be administered in a reproducible way. For WBC-11C it immediately results in a homogenous suspension.

Cc1nc(Sc2nnc3n2CCCCC3)c2c(-c3cccs3)csc2n1 [WBC-A]
Ki (wild type cells): 9.04 µM | Ki (wild type cells; printed K′, read-out: K′i, glucose uptake, wild type cells): 36.6 µM | Type of inhibition of glucose uptake, wild type cells (wild type cells; Lineweaver-Burk plot analysis): mixed type | Ki ([1]; Dixon plot analysis, read-out: Ki (=K′i), 2-deoxyglucose uptake in A549 cells): 52.8 µM | Type of inhibition of 2-deoxyglucose uptake in A549 cells ([1]; Lineweaver-Burk plot analysis): noncompetitive | Proliferation of U266 cell line [2]: inhibit proliferation | Glucose consumption and lactate production in KMS-12-PE cells [3]: did not cause inhibition | Other abnormalities at autopsy ([4]; daily i.p. 5, 10, 20 mg/kg, 20 days): No other abnormalities | Loss in body weight over 20 days ([4]; daily i.p. 5, 10 and 20 mg/kg, nude mice): no significant loss in body weight; also recorded: No significant difference | AST/ALT ratio vs vehicle ([4]; sera after 20 days, 5, 10, 20 mg/kg i.p.): No significant difference | Blood glucose level vs vehicle ([4]; sera post mortem after 20 days, 5, 10, 20 mg/kg i.p.): No significant difference
